Data as given in US20170002393A1, “COMPOSITIONS AND METHODS FOR ANTIBODY PRODUCTION” (IMMUNOGEN, INC., priority 2013, published 2017).
Converted amounts (≈) assume the structure as drawn.

How the values were obtained:
humanized FOLR1 IgG1 = assay: Antibody fragmentation in HCCF with 20% (v/v) microfluidized CHO cells (non-reducing SDS-Protein Lab Chip); type: biochemical; conditions: 1 mM of each additive, 6 h; no additive control 78%
Description: The microfluidization was carried out using 3 liter CHO cells from a bioreactor, which were resuspended into 300 ml PBS, processed through microfluidizer, centrifuged and filtered through 0.22 micrometer membrane. […] The samples were quenched with 5 mM N-ethylmaleimide (NEM), purified using immobilized Protein A, and subjected to non-reducing SDS-Protein Lab Chip electrophoretic analysis.

physchem = conditions: thermodynamic from solid
[1] = 50 mM potassium phosphate buffer, pH adjusted to 7.1
[2] = test system: recombinant humanized IgG1 antibody; assay: Antibody fragmentation in HCCF kept under nitrogen, air or oxygen with or without CDME (non-reducing SDS-Protein Lab Chip); type: biochemical
Description: A CHO cell culture producing recombinant humanized IgG1 antibody was subjected to centrifugation and the resulting harvest cell culture fluid (HCCF) was frozen at −80° C. […] At various time points, samples were quenched with N-ethylmaleimide (NEM), purified using immobilized Protein A, and analyzed for fragments using non-reducing SDS-Protein Lab Chip electrophoresis. […] In contrast, the sample overlayed with air became less fragmented with time, reaching a plateau of about 25% fragmentation at 20 hours.

[3] = test system: Humanized anti-folate receptor 1 (FOLR1) IgG1; assay: Thiol per antibody (DTNB/Ellman's) after incubating immobilized antibody with damaged CHO cell supernatant; type: biochemical; conditions: 0.05 mM agent, 2.2 hours; antibody eluted from Protein A bead, neutralized to pH 7
Description: For all of the examples described below, cell damage was simulated by multiple freeze-thaw cycles of cells, by addition of RIPA buffer (50 mM Tris-HCl, pH 7.4, 1% NP-40, 0.5% sodium deoxycholate, 0.1% sodium dodecylsulfate), or by using microfluidizer. This damaged cell supernatant or lysate was then incubated with a buffered solution containing antibody with or without the anti-reduction agent being tested, following which the extent of the antibody-disulfide reduction was measured using Ellman's assay for thiol (P. W. Riddles, R. L. Blakeley, and B. Zerner, Methods Enzymol., 91, 49-60, 1983) or by non-reducing SDS protein LabChip analysis. The total thiol level present in the mixture of damaged cell supernatant/lysate was measured initially. […]
The concentration of thiol in the suspension of damaged CHO cells was measured as 4 mM using DTNB ((5,5′-dithiobis(2-nitrobenzoic acid); Ellman's reagent). Humanized anti-folate receptor 1 (FOLR1) IgG1 (1 mg) was immobilized on 0.05 ml of Protein A bead (RepliGen) and then treated with pre-mixed 0.5 ml PBS and 0.1 ml damaged CHO cell supernatant. The concentration of thiol in this mixture was 0.67 mM. […]

**Q.** Which “fragmentation compared to no additive control” value (humanized FOLR1 IgG1) does the source give for O=C1c2ccccc2C(=O)c2cc(S(=O)(=O)O)ccc21 [AQS, anthraquinone-2-sulfonic acid] here?
**A.** much lower fragmentations

**Q.** With CCOC(=O)[C@@H](N)CSSC[C@H](N)C(=O)OCC [CDEE, L-cystine diethyl ester] as the compound, how does the solubility (physchem; pH 7, aqueous buffer) read?
**A.** > 100 mM

**Q.** And the solubility (physchem; water)?
**A.** ≥ 1000 mM

**Q.** For COC(=O)[C@@H](N)CSSC[C@H](N)C(=O)OC [CDME, L-cystine dimethyl ester], which “concentration dissolved in buffer” value [1] is on record?
**A.** ≥ 5 mM

**Q.** And the “fragmentation compared to no additive control” value (humanized FOLR1 IgG1)?
**A.** much lower fragmentations

**Q.** What about the “time up to which the antibody was protected from reduction” value ([2]; 1 mM CDME with nitrogen) of the same compound?
**A.** up to 20 hours

**Q.** What about the “time up to which the antibody was protected from reduction” value ([2]; 2 mM CDME with nitrogen) of the same compound?
**A.** ≤ 45 h

**Q.** And the “fragmentation with air overlay plus CDME versus air alone” value ([2]; ~1 mM CDME with air overlay, up to 72 hours)?
**A.** lowered the fragmentation further

**Q.** For Cl.Cl.N[C@@H](CSSC[C@H](N)C(=O)O)C(=O)O [L-cystine dihydrochloride, reference compound], which “concentration dissolved in buffer” value [1] is on record?
**A.** less than 5 mM

**Q.** With N[C@@H](CSSC[C@H](N)C(=O)O)C(=O)O [L-cystine, reference compound] as the compound, how does the solubility (physchem; water) read?
**A.** ~0.5 mM (≈ 0.12 mg/mL)

**Q.** With CN(C)c1ccc2nc3ccc(N(C)C)cc3[s+]c2c1 [methylene blue, Methylene blue] as the compound, how does the “thiol per antibody of eluted, neutralized antibody” value [3] read?
**A.** 0.002 thiol per antibody

**Q.** For O=O [oxygen], which protection against fragmentation ([2]; sparging with oxygen at various percentages of dissolved O2) is on record?
**A.** showed protection against fragmentation
